From article PMC12381781, “Structural and functional insights into the selective inhibition of mutant tau aggregation by purpurin and oleocanthal in frontotemporal dementia” (Protein Science : A Publication of the Protein Society, 2025)

Tests used:
R2R3 (WT) tau peptide [1] = molecular target: T1, R2R3 (WT) tau peptide (Homo sapiens, UniProt P10636); experiment: ThT aggregation assay of monomeric R2R3 (WT) peptide; assay type: biochemical; conditions: compound 10 μM; for ThT-stained aggregates, confocal imaging: R2R3 WT, end of ThT assay
T1 construct: Peptides spanning R2R3—including PHF6 and PHF6*; purchased ProteoGenix (Schiltigheim, France); host or cells: chemical synthesis (custom peptide)
T1 sequence (P10636 592-653 limits assumed): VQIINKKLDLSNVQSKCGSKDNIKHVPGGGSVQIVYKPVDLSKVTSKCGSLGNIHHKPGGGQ
Method: The aggregation kinetics of tau peptides were monitored using a ThT assay. A 40 μL reaction mixture containing 15 μM ThT (Sigma‐Aldrich, Cat. # T3516‐5G) and 50 μM peptide in the absence (control) or presence of 0.1 μM, 1 μM, and 10 μM PUR or OLC was prepared on ice in aggregation buffer (20 mM Tris [pH 7.4], 100 mM NaCl, 1 mM ethylenediaminetetraacetic acid [EDTA]) containing 5 μM heparin (Sigma‐Aldrich, Cat. #H4784). dithiothreitol (DTT) was excluded to avoid its differential effects on the aggregation kinetics of tau peptides containing Cys291 or Cys322 and to prevent peroxide generation by redox‐active compounds like PUR, which can lead to oxidative artifacts and false‐positive inhibition signals, as reported in our previous study (Annadurai, Malina, Salmona, et al., [2022]). This mixture was then dispensed into a clear‐bottom, black 384‐well ViewPlate (Revvity, Waltham, MA, United States; Part # 6007460) and sealed with a TopSealA‐PLUS (Revvity) to prevent evaporation.
Aggregation was monitored using EnSpire Multimode Plate Reader (Revvity) at 37°C with constant agitation (1000 rpm). […] ThT fluorescence (ThT—λ ex: 460–490 nm and λem: 500–550 nm) was recorded every 5–10 min for 48 h.
ThT fluorescence curves were fitted to a sigmoidal function in GraphPad Prism (version 10, San Diego, CA, USA) using the following equation:
Y=Top/1+expV50–X/Slope , where Y is the ThT fluorescence intensity, X is time (h), Top is the maximum fluorescence intensity, V50 is the time to reach 50% of Top, and Slope describes the steepness of the aggregation transition. Baseline fluorescence at the start of the measurements was relatively low across samples and was not separately fitted. In samples showing early increases in fluorescence, the aggregation trajectory was modeled directly without introducing an independent baseline parameter. […]
To evaluate the effect of compounds on the extent of aggregation, the AUC was calculated for each replicate ThT fluorescence curve using GraphPad Prism. […]

R2R3 (P301L) tau peptide = R2R3 (P301L) tau peptide (Homo sapiens, UniProt P10636, P618L); experiment: Atomic force microscopy of R2R3 (P301L) aggregates; assay type: biochemical; conditions: compound 10 μM, 48 h
Chain of R2R3 (P301L) tau peptide (P10636 592-653 P618L): as the sequence (P10636 592-653 limits assumed) above, with P27L counted along it
Method: Aggregates collected after 48 h of aggregation were processed for AFM analysis as described previously (Annadurai, Malina, Malohlava, et al., [2022]).

R2R3 (WT) tau peptide [2] = molecular target: T1, R2R3 (WT) tau peptide; experiment: SPR titration cycle kinetics, immobilized R2R3 (WT) peptide; assay type: binding
Method: SPR experiments were conducted using the Sierra® SPR‐24 Pro system (Bruker Daltonics, Bremen, Germany), featuring a gold‐coated microfluidic array (24 detection spots, 3 × 8 format). Data acquisition and kinetic analysis were performed using SPR Analyzer 4 software.
All experiments were conducted at 25°C using PBS (pH 7.4) supplemented with 0.05% Tween‐20 and 5% DMSO as the running buffer to ensure assay reproducibility. Assay components, including 96‐well microtiter plates (Part # 1862984; Burker) and Microplate and Reservoir Sealer (Part #1862985; Burker), were used for sample handling and were compatible with the Sierra SPR®‐24 Pro system (Bruker Daltonics, Billerica, MA, USA).
WT and mutant (P301L, V287I, and N279K) tau peptides were dissolved in 10 mM sodium acetate buffer (pH 5.0; Burker) and immobilized onto High‐Capacity Amine Sensor Surfaces (Part #1862614; Bruker) using the Amine Coupling Kit (Part #1862634; Bruker). The sensor surface was preconditioned with a Surface Elution Buffer (Part #1862656; Bruker Daltonics) and 0.1M HCl to remove contaminants and improve binding specificity. […]
PUR and OLC were prepared in PBS (pH 7.4) supplemented with 0.05% Tween‐20 and 5% DMSO. Compound interactions with tau peptides were pre‐screened using a concentration range of 1–100 μM, and subsequent binding kinetics were evaluated at optimized concentrations. […] Each analyte was sequentially injected, and association and dissociation phases were monitored to determine kinetic parameters.
SPR binding kinetics were assessed using the titration cycle kinetics (TCK) assay, which included consecutive association phases followed by a single dissociation phase. […] A reference blank injection was included for double referencing, and a single dissociation curve was recorded for the highest analyte concentration.
Sensorgrams were analyzed using the Kinetic Titration model, which was integrated into the global kinetic fitting model of the SPR Analyzer 4 software. […]

[3] = set-up: method as in Viswanathan et al., [2020]; conditions: in vitro studies; ref Viswanathan et al., [2020]; cited from earlier work

SMILES	ThT-stained aggregates, confocal imaging (R2R3 (WT) tau peptide [1])	AFM morphology of aggregates (R2R3 (P301L) tau peptide)	koff (R2R3 (WT) tau peptide [2]; R2R3 WT) [s⁻¹]	kon (R2R3 (WT) tau peptide [2]; R2R3 WT) [M⁻¹ s⁻¹]	Kd (R2R3 (WT) tau peptide [2]; R2R3 WT peptide immobilized, 25°C, PBS pH 7.4) [µM]	remaining activity at 10 µM (R2R3 (WT) tau peptide [1]; R2R3 WT 50 μM, read-out: aggregation (% of control), AUC of ThT fluorescence) [%]	BBB permeation [3]
C/C=C(/C=O)[C@@H](CC=O)CC(=O)OCCc1ccc(O)cc1 [OLC, oleocanthal]	moderate reduction in fluorescence intensity	only sparse fibrils					
O=C1c2ccccc2C(=O)c2c(O)c(O)cc(O)c21 [PUR, purpurin]	moderate reduction in fluorescence intensity	only sparse fibrils	0.000265	61	4.35	63	can permeate the BBB
